Read-outs that look alike come from different tables or passages of the source.
Target: T1, uterine OT receptors (Rattus norvegicus, UniProt P70536)
T1 construct: crude membrane preparation of uteri; from tissue; host or cells: uterus of DES-treated rats, crude membranes
T1 sequence (P70536 1-388): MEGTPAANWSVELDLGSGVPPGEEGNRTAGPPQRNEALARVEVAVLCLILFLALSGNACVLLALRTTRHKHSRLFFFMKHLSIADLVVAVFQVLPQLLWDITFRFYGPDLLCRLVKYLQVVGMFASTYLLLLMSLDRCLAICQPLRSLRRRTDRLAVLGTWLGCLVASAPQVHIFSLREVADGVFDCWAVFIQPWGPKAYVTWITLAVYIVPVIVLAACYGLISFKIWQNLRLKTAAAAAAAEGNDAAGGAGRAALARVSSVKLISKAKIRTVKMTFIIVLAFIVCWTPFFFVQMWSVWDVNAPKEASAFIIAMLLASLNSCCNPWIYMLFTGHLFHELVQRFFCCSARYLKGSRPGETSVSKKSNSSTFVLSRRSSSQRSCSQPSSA
Assay: Radioligand binding: competition of [^3 H]oxytocin binding to rat uterine membranes
Details: for IC50: rat uterus membranes, 60 minutes, 22° C., pH 7.4; for inhibition at 1 µM: read-out: % inhibition at 1000 nM
Source text: RADIOGLIGAND BINDING ASSAYS
The high affinity binding of [^3 H]

Structure (SMILES)	IC50 (1 nM [^3 H]OT, read-out: IC50)	further results
Cc1ccccc1N1CCN(C(=O)C2(C)C(=O)C3(C)CCC2C3(C)C)CC1 (centres unmarked) [Example 3, 1-(2-methylphenyl)-4-[(2,4,7,7-tetramethyl-3-oxobicyclo[2.2.1]hept-2-yl)carbonyl]-piperazine]	0.15 µM	
Cc1ccccc1N1CCN(C(=O)C2C3CCC(C)(C2NC(=O)C(N)C(C)O)C3(C)C)CC1 (centres unmarked) [Example 20, 1-(2-methylphenyl)-4-[(4,7,7-trimethyl-3-(2-amino-3-hydroxy)butyrylaminobicyclo[2.2.1]hept-2-yl)carbonyl]-piperazine]	0.0036 µM	
Cc1ccccc1N1CCN(S(=O)(=O)C[C@]23CC[C@H](C[C@]2(O)C(C)C#N)C3(C)C)CC1 (stereo partly drawn) [Example 38, 1-((7,7-Dimethyl-2-exo-hydroxy-2-endo-(1-cyano)ethyl-bicyclo(2.2.1)heptan-1-yl)methanesulfonyl)-4-(2-methylphenyl)piperazine]	0.15 µM	
Cc1ccccc1N1CCN(S(=O)(=O)CC23CCC(CC2N(C)C(=O)OCc2ccccc2)C3(C)C)CC1 (stereo not drawn) [Example 76, 1-((7,7-Dimethyl-2-endo-methyl(benzyloxy-carbonyl)amino-bicyclo(2.2.1)-heptan-1-yl)methanesulfonyl)4-(2-methylphenyl)piperazine]	0.0063 µM	
Cc1ccccc1N1CCN(S(=O)(=O)C[C@]23CC[C@H](C[C@]2(O)C(C)CNC(=O)[C@@H]2CCCN2)C3(C)C)CC1 (stereo partly drawn) [Example 40, 1-((7,7-Dimethyl-2-exo-hydroxy-2-endo-2-(1-(1-prolyl)-amino)propylbicyclo(2.2.1)heptan-1-yl)methanesulfonyl)-4-(2-methylphenyl)piperazine]	0.034 µM	
Cc1ccccc1N1CCN(S(=O)(=O)CC23CCC(CC2(O)C(C)CNC(=O)C2CCCNC2)C3(C)C)CC1 (stereo not drawn) [Example 83, 1-((7,7-Dimethyl-2-exo-hydroxy-2-endo-2-(1-(3-piperidinylcarbonyl)amino)propyl-bicyclo(2.2.1)heptan-1-yl)methanesulfonyl)-4-(2-methylphenyl)piperazine]	0.03 µM	
Cc1ccccc1N1CCN(S(=O)(=O)C[C@]23CC[C@H](C[C@]2(O)C(C)CNC(=O)Cc2c[nH]cn2)C3(C)C)CC1 (stereo partly drawn) [Example 43, 1-((7,7-Dimethyl-2-exo-hydroxy-2-endo-2-(1-(4(5)-imidazolylacetyl)amino)propyl-bicyclo(2.2.1)heptan-1-yl)methanesulfonyl)-4-(2-methylphenyl)piperazine]	0.008 µM	
Cc1ccccc1N1CCN(S(=O)(=O)C[C@]23CC[C@H](CC2=CCN=[N+]=[N-])C3(C)C)CC1 [Example 51, 1-((7,7-dimethyl-2-(2-azido)ethylidine-bicyclo-(2.2.1)heptan-1-yl)methanesulfonyl)-4-(2-methyl-phenyl)piperazine]		inhibition at 1 µM: 64%
Cc1ccccc1N1CCN(S(=O)(=O)C[C@]23CC[C@H](CC2=CCNC(=O)Cc2c[nH]cn2)C3(C)C)CC1 [Example 53, 1-((7,7-dimethyl-2-(2-(4(5)-imidazolylacetyl)amino)-ethylidine-bicyclo(2.2.1)heptan-1-yl)methane-sulfonyl)-4-(2-methylphenyl)piperazine]		inhibition at 1 µM: 75%
Cc1ccccc1N1CCN(S(=O)(=O)CC23CCC(CC2(O)C(C)CNC(=O)C2CCCN(CC(=O)O)C2)C3(C)C)CC1 (stereo not drawn) [Example 87, 1-((7,7-Dimethyl-2-exo-hydroxy-2-endo-2-(1-(3-(1-carboxymethyl)piperidinylcarbonyl)amino)-propylbicyclo(2.2.1)heptan-1-yl)methanesulfonyl)-4-(2-methylphenyl)piperazine]		inhibition at […] (read-out: % inhibition at 110 nM): 66%
Cc1ccccc1N1CCN(S(=O)(=O)CC23CCC(CC24CO4)C3(C)C)CC1 (single isomer, unassigned) [Example 54, 1-((7,7-Dimethyl-2-spiro-epoxy-bicyclo(2.2.1)heptan-1-yl)methanesulfonyl)-4-(2-methylphenyl)piperazine]		inhibition at 1 µM: 31%
Cc1ccccc1N1CCN(S(=O)(=O)C[C@]23CC[C@H](C[C@]2(O)C(C)CNC(=O)C2CN4CCC2CC4)C3(C)C)CC1 (stereo partly drawn) [Example 44, 1-((7,7-Dimethyl-2-exo-hydroxy-2-endo-2-(1-(quinuclidin-3-yl-carbonyl)amino)propyl-bicyclo(2.2.1)heptan-1-yl)methanesulfonyl)-4-(2-methylphenyl)piperazine]		IC50 (IC50, 1 nM [^3 H]OT): 0.018 µM
CC(=O)NC(CC=C1CC2CCC1(CS(=O)(=O)N1CCN(c3ccccc3C)CC1)C2(C)C)C(=O)O (centres unmarked) [Example 65, 1-((7,7-Dimethyl-2-(3-acetamido-3-carboxy)propylidine-bicyclo(2.2.1)heptan-1-1 methanesulfonyl)-4-2-methylphenyl)piperazine]		inhibition at 10 µM (read-out: % inhibition at 10,000 nM): 16%
COC(=O)CCN1CCC(C(=O)NCC(C)C2(O)CC3CCC2(CS(=O)(=O)N2CCN(c4ccccc4C)CC2)C3(C)C)CC1 (stereo not drawn) [Example 91, 1-((7,7-Dimethyl-2-exo-hydroxy-2-endo-2-(1-(4-(1-methoxycarbonylethyl)-piperidinylcarbonyl)-amino)propylbicyclo(2.2.1)heptan-1-yl)methane-sulfonyl)-4-(2-methylphenyl)piperazine]	0.054 µM	
Cc1ccccc1N1CCN(C(=O)C2C3CCC(C)(C2O)C3(C)C)CC1 (centres unmarked) [Example 2, 1-[(3-hydroxy-4,7,7-trimethylbicyclo[2.2.1]hept-2-yl)carbonyl]-4-(2-methylphenyl)-piperazine]	0.8 µM	
Cc1ccccc1N1CCN(S(=O)(=O)C[C@]23CC[C@H](C[C@@H]2NC(=O)C(C)c2c[nH]cn2)C3(C)C)CC1 (stereo partly drawn) [Example 80, 1-((7,7-Dimethyl-2-endo-(2-(4-imidazolyl)propanoyl)-amino-bicyclo(2.2.1)heptan-1-yl)methanesulfonyl)-4-(2-methylphenyl)piperazine]	0.012 µM	
Cc1ccccc1N1CCN(C(=O)C2C3CCC(C)(C2NC(=O)C(N)CCS(C)(=O)=O)C3(C)C)CC1 (stereo not drawn) [Example 12, 1-(2-methylphenyl)-4-[(4,7,7-trimethyl-3-endo-(4-methylsulfonyl-2-amino)butanoylaminobicyclo[2.2.1]hept-2-endo-yl)carbonyl]-piperazine]	0.0153 µM	
Cc1ccccc1N1CCN(S(=O)(=O)CC23CCC(CC2O)C3(C)C)C(C)C1 (stereo not drawn) [Example 68, 1-((7,7-Dimethyl-2-exo-hydroxy-bicyclo(2.2.1)heptan-1-yl)methanesulfonyl)-4-(2-methylphenyl)-2-methyl-piperazine]	0.46 µM	
CCOC(=O)CN1CCC[C@H]1C(=O)NCC(C)C1(O)CC2CCC1(CS(=O)(=O)N1CCN(c3ccccc3C)CC1)C2(C)C (stereo partly drawn) [Example 88, 1-((7,7-Dimethyl-2-exo-hydroxy-2-endo-2-(1-(1-N -(ethoxycarboxymethyl)-prolyl)amino)propyl-bicyclo-(2.2.1)heptan-1-yl)methanesulfonyl)-4-(2-methylphenyl)piperazine]	0.028 µM	
Cc1ccccc1N1CCN(S(=O)(=O)C[C@]23CC[C@H](CC2=O)C3(C)C)CC1 [Example 37, 1-((7,7-Dimethyl-2-oxo-bicyclo(2.2.1)heptan-1-yl)methanesulfonyl)-4-(2-methylphenyl)piperazine]	1 µM	
COC(=O)C1CC2CCC1(CS(=O)(=O)N1CCN(c3ccccc3C)CC1)C2(C)C (stereo not drawn) [Example 59, 1-((7,7-Dimethyl-2-endo-methoxycarbonyl-bicyclo-(2.2.1)heptan-1-yl)methanesulfonyl)-4-(2-methyl-phenyl)piperazine]	0.26 µM	
COC(=O)CCN1CCCC(C(=O)NCC(C)C2(O)CC3CCC2(CS(=O)(=O)N2CCN(c4ccccc4C)CC2)C3(C)C)C1 (centres unmarked) [Example 84]	0.025 µM	
Cc1ccccc1N1CCN(S(=O)(=O)C[C@]23CC[C@H](C[C@]2(O)C(C)CN)C3(C)C)CC1 (some centres unmarked) [Example 39]	0.18 µM	
Cc1ccccc1N1CCN(S(=O)(=O)CC23CCC(CC2(O)C(C)CNC(=O)[C@@H]2CCCN2CC(=O)O)C3(C)C)CC1 (some centres unmarked) [Example 89]	0.014 µM	
Cc1ccccc1N1CCN(C(=O)C2(CC#N)C(=O)C3(C)CCC2C3(C)C)CC1 (centres unmarked) [Example 5]		inhibition at 1 µM: 27%
Cc1ccccc1N1CCN(S(=O)(=O)CC23CCC(CC2(O)C(C)CNC(=O)[C@@H]2CCCN2CCC(=O)O)C3(C)C)CC1 (stereo partly drawn) [Example 82, 1-((7,7-Dimethyl-2-exo-hydroxy-2-endo-2-(1-(1-N-(carboxyethyl)prolyl)amino)propyl-bicyclo(2.2.1)-heptan-1-yl)methanesulfonyl)-4-(2-methylphenyl)piperazine]	0.015 µM	
Cc1ccccc1N1CCN(S(=O)(=O)CC23CCC(CC2NC(=O)Cc2c[nH]cn2)C3(C)C)CC1 (centres unmarked) [Example 79]	0.026 µM	
Cc1ccccc1N1CCN(S(=O)(=O)CC23CCC(CC2N(C)C(=O)[C@@H](N)CCS(C)(=O)=O)C3(C)C)CC1 (stereo partly drawn) [Example 77, 1-((7,7-dimethyl-2-endo-methyl(2S-amino-4-(methylsulfonyl)butanoyl)amino-bicyclo(2.2.1)heptan-1-yl)methanesulfonyl)-4-(2-methylphenyl)-piperazine]	0.0092 µM	
Cc1ccccc1N1CCN(C(=O)C2C3CCC(C)(C2NC(=O)C(CCS(C)(=O)=O)NC(=O)OC(C)(C)C)C3(C)C)CC1 (stereo not drawn) [Example 9, 1-(2-methylphenyl)-4-[(4,7,7-trimethyl-3-exo-(4-methylsulfonyl-2-t-butoxycarbonylamino)butanoylaminobicyclo[2.2.1]hept-2-endo-yl)carbonyl]-piperazine]	0.0065 µM	

From patent US5686454A, “Camphorcarbonyl” (Merck & Co., Inc., priority 1996, dated 1997)
